# Experimental data from article PMC6917776, “Discovery of a chemical probe for PRDM9” (Nature Communications, 2019).
# Tested on: H3K4me3 at known PRDM9 binding loci and control TSS loci
# Experiment: ChIP-qPCR of H3K4me3 in PRDM9-transfected HEK293T cells
# Assay type: cell-based, human
# Details: Replicate 1; for 2^-dCq (H3K4me3 ChIP relative to H3 ChIP): Figure 7 C, Antibody H3K4me3; for 2^-dCq: H3K4me3 ChIP normalised to H3; for dCq (IP-Input): H3K4me3 antibody
# Procedure: ChIP-qPCR assays were then conducted on known PRDM9 binding loci[26]. Ectopic expression of PRDM9^WT increased trimethylation of H3K4 (H3K4me3) at previously described PRDM9-specific intragenic and intergenic regions[26] (Fig. 7; Supplementary Fig. 12). […] The observed increases in H3K4me3 levels at intragenic and intergenic regions are therefore due directly to PRDM9 PR domain-dependent methylation activity, rather than through recruitment of other H3K4 methyltransferases or other indirect mechanisms.
# ChIP qPCR analyses of H3K4me3 methylation levels of known PRDM9-bound loci and control loci. […] Concentrations used (µM) are indicated below each plot. (a–d) represent reported loci of PRDM9 methylation; (e, f) are transcriptional start sites (TSSs) which are not known loci of PRDM9 methylation. Data are normalized to total H3 and are presented as the mean ± upper and lower limits from two replicates. Representative plots of two independent experiments are shown in this figure. The coordinates and the genomic features associated with the assayed loci are indicated above each plot. Left Tailed Student's t-tests were performed by comparing DMSO (0 µM) treated cells to compound treated cells that have been transfected with the same plasmids. *p-value < 0.05 and **p-value < 0.01. Note that here we show a representative of two independent experiments (mean ± s.d of technical replicates) for our ChIP-qPCR experiments. Data obtained using this technique are inherently noisy due to stochastic differences in gene activity/histone positioning. Data are thus typically presented as representative rather than averaged. Source data are provided as a Source Data file.
# HEK293T cells were transfected with 37.5 μg empty pcDNA3.1(+) vector (Invitrogen), or the same vector expressing either wild-type PRDM9 (PRDM9^WT) or a catalytically dead PRDM9 mutant (PRDM9^Mut) and 75 μL of Lipofectamine 2000 (Invitrogen) in 6 mL of Opti-MEM (GIBCO) for 48 h. […] ChIP assays were then performed as previously described. Briefly, cells were fixed in 1% formaldehyde and the fixation reaction was quenched in a final concentration of 0.1 M glycine. Cell pellets were first lysed in LB1 (50 mM HEPES-KOH pH 7.5, 140 mM NaCl, 1 mM EDTA, 10% Glycerol, 0.5% Igepal, 0.25% TritonX), washed once in LB2 Buffer (10 mM Tris-HCl pH 8, 200 mM NaCl, 1 mM EDTA, 0.5 mM EGTA) and finally sonicated in LB3 buffer (10 mM Tris-HCl pH 8, 100 mM NaCl, 1 mM EDTA, 0.5 mM EGTA, 0.1% Sodium deoxycholate, 0.5% N-laurosylsarcosine) using a bioruptor (Diagenode). Thereafter, 50 μg of chromatin was subjected to ChIP using the following antibodies purchased from Abcam: α-H3K4me3 (1:200, ab8580, lot:GR3207339-1) and α-H3 (1:250, ab1791, lot:GR300978-4). After extensive washing in RIPA wash buffer (50 mM HEPES-KOH pH 7.6, 100 mM LiCl, 1 mM EDTA, 1% Igepal, 0.7% Sodium Deoxycholate), DNA was eluted from beads. The eluted DNA was treated with RNase A and Proteinase K and purified using the QIAGEN PCR purification kit. qPCR was then carried out targeting the indicated loci (Supplementary Table 3). Upper and lower limits were defined by |2^−(dCq±s) − 2^−(∆Cq)|, where s = √((Standard deviation of Input Cq)^2 + (Standard deviation of Target Cq)^2). […]
# formation. ChIP qPCR analyses of H3K4me3 methylation levels at known PRDM9-bound and control loci. Cells transfected with empty vector (negative control) or vectors overexpressing either wild-type PRDM9 (PRDM9 WT) or catalytically dead PRDM9 (PRDM9 MUT) were […]
# Panels a-d represent reported loci of […]
# (1 picture or pasted object on this page, not shown here)
# PRDM9 methylation; e-f are TSSs which are not known sites of PRDM9 methylation. Data are normalized to total H3 and are presented as the mean ± upper and lower limits from two […]
# [1] = chr2:40281930-40282015 Intragenic (SLC8A1-AS1), Empty Vector
# [2] = chr2:40281930-40282015 Intragenic (SLC8A1-AS1), PRDM9
# [3] = chr2:40281930-40282015 Intragenic (SLC8A1-AS1), PRDM9_Cat.Dead
# [4] = chr2:128811847-128811944 (Intergenic), Empty Vector
# [5] = chr2:128811847-128811944 (Intergenic), PRDM9
# [6] = chr2:128811847-128811944 (Intergenic), PRDM9_Cat.Dead
# [7] = chr3:165514798-165514911 Intragenic (BCHE), Empty Vector
# [8] = chr3:165514798-165514911 Intragenic (BCHE), PRDM9
# [9] = chr3:165514798-165514911 Intragenic (BCHE), PRDM9_Cat.Dead
# [10] = chr8:49932778-49932856 (Intergenic), Empty Vector
smiles,measurement,setting,value
COc1cc(OC)cc(-c2noc(N3CCN(C)C4(CCN(c5ccnc(C)c5)CC4)C3)n2)c1 [MRK-740],2^-dCq (H3K4me3 ChIP relative to H3 ChIP),"chr2:40281930-40282015 Intragenic (SLC8A1-AS1), Plasmid Empty Vector, Drug Conc. 2.5",0.4152
same,2^-dCq (H3K4me3 ChIP relative to H3 ChIP),"chr2:40281930-40282015 Intragenic (SLC8A1-AS1), Plasmid Empty Vector, Drug Conc. 5",0.3238
same,2^-dCq (H3K4me3 ChIP relative to H3 ChIP),"chr2:40281930-40282015 Intragenic (SLC8A1-AS1), Plasmid Empty Vector, Drug Conc. 10",0.507
same,2^-dCq (H3K4me3 ChIP relative to H3 ChIP),"chr2:40281930-40282015 Intragenic (SLC8A1-AS1), Plasmid PRDM9WT, Drug Conc. 2.5",3.2145
same,2^-dCq (H3K4me3 ChIP relative to H3 ChIP),"chr2:40281930-40282015 Intragenic (SLC8A1-AS1), Plasmid PRDM9WT, Drug Conc. 5",2.572
same,2^-dCq (H3K4me3 ChIP relative to H3 ChIP),"chr2:40281930-40282015 Intragenic (SLC8A1-AS1), Plasmid PRDM9WT, Drug Conc. 10",2.028
same,2^-dCq,[1],0.4145
same,2^-dCq,[2],3.496
same,2^-dCq,[3],0.3605
same,2^-dCq,[4],0.4852
same,2^-dCq,[5],2.263
same,2^-dCq,[6],0.5507
same,2^-dCq,[7],0.3297
same,2^-dCq,[8],5.1
same,2^-dCq,[9],0.2515
same,2^-dCq,[10],0.5103
same,2^-dCq,"chr8:49932778-49932856 (Intergenic), PRDM9",4.604
same,2^-dCq,"chr8:49932778-49932856 (Intergenic), PRDM9_Cat.Dead",0.4888
same,2^-dCq,"chr12:6643945-6644023 TSS (GAPDH), Empty Vector",45.392
same,2^-dCq,"chr12:6643945-6644023 TSS (GAPDH), PRDM9",42.4818
same,2^-dCq,"chr12:6643945-6644023 TSS (GAPDH), PRDM9_Cat.Dead",88.4248
same,2^-dCq,"chr19:8510167-8510261 TSS (HNRNPM), Empty Vector",50.4703
same,2^-dCq,"chr19:8510167-8510261 TSS (HNRNPM), PRDM9",42.5896
same,2^-dCq,"chr19:8510167-8510261 TSS (HNRNPM), PRDM9_Cat.Dead",88.2214
same,dCq (IP-Input),[1],1.27
same,dCq (IP-Input),[2],-1.806
same,dCq (IP-Input),[3],1.472
same,dCq (IP-Input),[4],1.0432
same,dCq (IP-Input),[5],-1.178
same,dCq (IP-Input),[6],0.8606
same,dCq (IP-Input),[7],1.601
same,dCq (IP-Input),[8],-2.351
same,dCq (IP-Input),[9],1.992
same,dCq (IP-Input),[10],0.9707
